The text below walks through data of ChEMBL document CHEMBL1817621, “SAR studies of acidic dual γ-secretase/PPARγ modulators” (Bioorg Med Chem, 2011).

A short description of series [1]: Selectivity ratio of inhibition of gamma-secretase-mediated notch signaling to modulation of gamma-secretase.
A short description of series [2]: Modulation of gamma-secretase expressed in CHO cells co-expressing human APP and wild type human presenilin-1 assessed as increase of amyloid beta38 production by ELISA. The format is cell-based.
Series [3] deals with T1, Prostaglandin G/H synthase 2 (Homo sapiens) (UniProt P35354).
T1 sequence (whole entry): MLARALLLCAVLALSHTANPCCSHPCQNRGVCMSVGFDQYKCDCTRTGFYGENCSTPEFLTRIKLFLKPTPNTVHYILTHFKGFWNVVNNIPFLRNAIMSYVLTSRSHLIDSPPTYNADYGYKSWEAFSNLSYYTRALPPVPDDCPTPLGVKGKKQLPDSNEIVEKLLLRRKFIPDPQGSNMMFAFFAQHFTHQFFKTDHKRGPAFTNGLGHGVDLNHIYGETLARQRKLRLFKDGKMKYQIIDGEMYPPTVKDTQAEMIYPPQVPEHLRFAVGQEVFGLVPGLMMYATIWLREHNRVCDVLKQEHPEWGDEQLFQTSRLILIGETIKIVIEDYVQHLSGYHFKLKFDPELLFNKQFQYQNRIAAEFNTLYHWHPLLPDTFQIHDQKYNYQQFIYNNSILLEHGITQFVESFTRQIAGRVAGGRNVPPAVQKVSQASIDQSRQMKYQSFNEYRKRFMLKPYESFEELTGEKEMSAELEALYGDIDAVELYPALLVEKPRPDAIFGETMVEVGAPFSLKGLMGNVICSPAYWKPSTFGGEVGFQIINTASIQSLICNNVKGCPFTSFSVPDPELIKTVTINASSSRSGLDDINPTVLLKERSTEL
In words: Inhibition of human recombinant COX-2 assessed as residual activity by measuring formation of 12-HHT from arachidonic acid at 10 uM by HPLC analysis.

In series [4] the target is T2, Peroxisome proliferator-activated receptor delta (Homo sapiens) (UniProt Q03181).
T2 sequence (whole entry): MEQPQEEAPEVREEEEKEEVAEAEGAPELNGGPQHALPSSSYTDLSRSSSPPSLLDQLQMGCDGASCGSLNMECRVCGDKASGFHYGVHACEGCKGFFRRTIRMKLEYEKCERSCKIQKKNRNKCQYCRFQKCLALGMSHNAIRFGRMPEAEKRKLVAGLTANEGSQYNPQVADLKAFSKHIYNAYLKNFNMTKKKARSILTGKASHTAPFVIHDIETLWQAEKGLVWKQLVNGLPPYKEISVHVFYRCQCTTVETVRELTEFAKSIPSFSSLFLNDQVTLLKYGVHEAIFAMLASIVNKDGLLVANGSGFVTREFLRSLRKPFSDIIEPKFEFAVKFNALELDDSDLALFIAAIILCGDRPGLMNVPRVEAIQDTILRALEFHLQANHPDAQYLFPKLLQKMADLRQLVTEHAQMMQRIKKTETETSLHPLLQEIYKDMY
In words: Modulation of human PPARdelta-LBD expressed in african green monkey COS7 cells co-transfected with Gal4 assessed as activation of transactivation activity at 10 uM by luciferase assay. The format is cell-based. To be noted: COS-7.

Series [5] in a line: Modulation of gamma-secretase expressed in CHO cells co-expressing human APP and wild type human presenilin-1 assessed as inhibition of amyloid beta42 production by ELISA. The format is cell-based.
Series [6] has as its target T3, Peroxisome proliferator-activated receptor gamma (Homo sapiens) (UniProt P37231).
T3 sequence (whole entry): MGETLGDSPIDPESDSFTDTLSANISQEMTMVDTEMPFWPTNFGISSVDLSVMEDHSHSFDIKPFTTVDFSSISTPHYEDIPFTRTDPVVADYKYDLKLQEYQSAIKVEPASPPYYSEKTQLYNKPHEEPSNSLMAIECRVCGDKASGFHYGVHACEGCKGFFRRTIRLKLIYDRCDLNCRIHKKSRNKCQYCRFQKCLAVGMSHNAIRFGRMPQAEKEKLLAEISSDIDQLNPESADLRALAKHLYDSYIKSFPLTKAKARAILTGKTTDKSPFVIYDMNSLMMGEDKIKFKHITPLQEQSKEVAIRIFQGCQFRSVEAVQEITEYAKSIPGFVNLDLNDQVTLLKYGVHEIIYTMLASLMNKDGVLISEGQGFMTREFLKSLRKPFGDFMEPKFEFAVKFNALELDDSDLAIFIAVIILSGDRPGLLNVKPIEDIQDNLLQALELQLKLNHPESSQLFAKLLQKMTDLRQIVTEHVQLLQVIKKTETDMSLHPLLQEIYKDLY
In words: Modulation of human PPARgamma-LBD expressed in african green monkey COS7 cells co-transfected with Gal4 assessed as activation of transactivation activity by luciferase assay relative to pioglitazone. To be noted: COS-7. The format is cell-based.

The test system of series [7] is CHO. Nature of the series: Cytotoxicity against CHO cells expressing human APP and wild type human presenilin-1 assessed as reduction of cell viability up to 40 uM after 24 hrs by Alamar blue assay. It counts as cell-based, Cricetulus griseus. To be noted: chinese hamster. Background: Alamar Blue is a resazurin reagent that responds to reducing activity.
The subject of series [8] is CHO. In words: Inhibition of gamma-secretase-mediated notch signaling expressed in CHO cells transfected with Gal4-DNA-binding/VP16 transactivation domain assessed as reduction of reporter activity up to 30 uM by luciferase assay. The format is cell-based.
In series [9] the target is T4, Peroxisome proliferator-activated receptor gamma (Homo sapiens, UniProt P37231).
T4 sequence (P37231 whole entry): T3 sequence (whole entry)
In words: Modulation of human PPARgamma-LBD expressed in african green monkey COS7 cells co-transfected with Gal4 assessed as activation of transactivation activity by luciferase assay. It counts as cell-based, COS-7.

Series [10] has as its target T5, Prostaglandin G/H synthase 1 (Ovis aries) (UniProt P05979).
T5 sequence (whole entry): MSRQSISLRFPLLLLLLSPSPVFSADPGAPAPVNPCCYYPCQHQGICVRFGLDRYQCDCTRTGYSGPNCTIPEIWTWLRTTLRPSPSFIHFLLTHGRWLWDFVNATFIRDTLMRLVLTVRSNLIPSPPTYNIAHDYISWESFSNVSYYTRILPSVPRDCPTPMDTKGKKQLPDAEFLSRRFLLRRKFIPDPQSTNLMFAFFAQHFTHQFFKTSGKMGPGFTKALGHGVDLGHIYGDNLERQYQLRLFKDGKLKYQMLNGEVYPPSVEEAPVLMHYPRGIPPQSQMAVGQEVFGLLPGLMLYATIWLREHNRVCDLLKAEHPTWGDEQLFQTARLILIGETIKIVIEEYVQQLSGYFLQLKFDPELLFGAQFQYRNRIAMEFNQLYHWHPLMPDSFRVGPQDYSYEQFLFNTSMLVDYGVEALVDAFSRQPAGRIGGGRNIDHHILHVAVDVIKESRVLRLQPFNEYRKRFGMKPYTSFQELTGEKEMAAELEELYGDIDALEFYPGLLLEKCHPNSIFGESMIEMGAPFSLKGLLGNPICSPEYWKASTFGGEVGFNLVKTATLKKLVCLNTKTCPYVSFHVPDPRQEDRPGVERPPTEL
In words: Inhibition of ovine COX-1 assessed as residual activity by measuring formation of 12-HHT from arachidonic acid at 10 uM by HPLC analysis.

Series [11] concerns the target T6, Peroxisome proliferator-activated receptor alpha (Homo sapiens) (UniProt Q07869).
T6 sequence (whole entry): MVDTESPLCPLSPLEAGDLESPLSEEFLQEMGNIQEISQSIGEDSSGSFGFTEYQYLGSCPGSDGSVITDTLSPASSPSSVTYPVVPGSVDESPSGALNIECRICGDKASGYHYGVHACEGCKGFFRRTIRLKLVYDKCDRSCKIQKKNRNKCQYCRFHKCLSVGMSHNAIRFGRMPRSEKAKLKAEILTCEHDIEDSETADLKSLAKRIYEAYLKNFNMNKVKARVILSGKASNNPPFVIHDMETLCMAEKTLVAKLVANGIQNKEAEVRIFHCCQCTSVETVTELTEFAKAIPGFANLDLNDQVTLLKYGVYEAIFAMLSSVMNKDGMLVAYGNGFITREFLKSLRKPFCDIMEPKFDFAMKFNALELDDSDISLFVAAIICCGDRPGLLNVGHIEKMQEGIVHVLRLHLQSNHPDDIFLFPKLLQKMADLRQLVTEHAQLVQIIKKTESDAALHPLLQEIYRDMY
In words: Modulation of human PPARalpha-LBD expressed in african green monkey COS7 cells co-transfected with Gal4 assessed as activation of transactivation activity at 10 uM by luciferase assay. It counts as cell-based. To be noted: COS-7.

In series [12] the target is T7, Prostaglandin G/H synthase 1 (Ovis aries, UniProt P05979).
T7 sequence (P05979 whole entry): T5 sequence (whole entry)
Description: Inhibition of ovine COX-1 assessed as residual activity by measuring formation of 12-HHT from arachidonic acid by HPLC analysis

Series [13] addresses T3, Peroxisome proliferator-activated receptor gamma (Homo sapiens). Nature of the series: Modulation of human PPARgamma-LBD expressed in african green monkey COS7 cells co-transfected with Gal4 assessed as activation of transactivation activity at 10 uM by luciferase assay. It counts as cell-based. To be noted: COS-7.
Series [14] in a line: Modulation of gamma-secretase expressed in CHO cells co-expressing human APP and wild type human presenilin-1 assessed as reduction of amyloid beta38 production by ELISA.

Calls of active or inactive are those of the source. The calls are words filed in the database; no cut-off is given here.

As a reminder, the EC50 is the concentration that produces a half-maximal response. What is called IC50 is the concentration at which inhibition is half-maximal. `CCCC/C(=C\c1cc(OCCc2ccc(C(F)(F)F)cc2)ccc1OCCc1ccc(C(F)(F)F)cc1)C(=O)O`: the Ratio in series [1] was 8. Also, the results for the EC50 in series [2] and in series [9] were 1600 nM and 7200 nM, respectively. Moreover, the Activity is 102% in series [3], “Non-toxic” with CHO [7] and 81% in [10]. The outcome in series [4] and in series [11] was inactive. Moreover, in series [5], the IC50 was 2400 nM. In addition, the Emax in [6] is 86%. In addition, the inhibition result in the series with CHO [8] is “inactive”.

As to `CCCCC(Sc1nc(OCCc2ccccc2)cc(OCCc2ccccc2)n1)C(=O)O` (stereo not given), 16700 nM corresponded to half-maximal inhibition in series [12] (IC50).

In the case of `CCCC/C(=C\c1cc(OCCC2CCCCC2)ccc1OCc1ccc(C(F)(F)F)cc1)C(=O)O`, the EC50 in [2] was 2500 nM. In addition, the Activity in series [3] is 106%; in series [13] it was 27%; in the series with CHO [7], “Non-toxic”; in [10], 92.3%. Besides, the result in series [4] and in series [11] was inactive. Also, the IC50 in [5] was 2700 nM.

As to `CCCCC(Cc1ccc(OCCc2ccccc2)cc1OCCc1ccccc1)C(=O)O` (stereo not given), the Activity in series [3] was 110%; in the series with CHO [7], “Non-toxic”; in series [10], 99.1%. In addition, in series [14], the IC50 worked out at 5000 nM. The result in [4], in series [13] and in series [11] was inactive.

For `CCCC/C(=C\c1cc(OCCC2CCCCC2)ccc1OCCC1CCCCC1)C(=O)O`, the Ratio in [1] amounted to 8. Besides, the concentration giving a half-maximal response (EC50) in series [2] worked out at 3100 nM. For the same compound, the Activity in [3] was 123%; in [13] it was 75%; in the series with CHO [7], “Non-toxic”; in series [10], 76.4%. Moreover, the outcome in series [4] and in series [11] was inactive. Moreover, the IC50 in [5] was 3900 nM. In addition, the inhibition entry in the series on CHO [8] is “inactive”.

With `CCCC/C(=C\c1cc(OCc2ccc(C(F)(F)F)cc2)ccc1OCc1ccc(C(F)(F)F)cc1)C(=O)O`, in [2], the EC50 is 1100 nM. The Activity in series [3] was 102%; in series [13] it was 28%; with CHO [7], “Non-toxic”; in series [10] it was 82.6%. Further, the outcome in [4] and in series [11] was inactive. The IC50 in [5] is 1200 nM.
